How the values were obtained:
SUM149 = experiment: MTT cytotoxicity assay, SUM149; type: cell-based; conditions: SUM149, breast, 72 hr, read-out: IC50, cell killing
Procedure: (§1) All cell lines were obtained from the American Type Culture Collection (ATCC) and cultured in the specified medium supplemented with 10% fetal bovine serum, 100 IU/mL penicillin, and 100 μg/mL streptomycin at 37° C. in a humidified 5% CO2/95% air incubator. To assess drug cytotoxicity cells were seeded at 2,500 cells/well (10,000 cells/well for MM lines and primary cells) in 100 μL medium in 96-well plate. […]
(§2) It was examined whether the RPN13 inhibitor, RA475, was cytotoxic for cancer cell lines using the MTT assay.

PACS = experiment: MTT cytotoxicity assay, PACS; type: cell-based; conditions: ovarian (mouse), 72 hr, read-out: IC50, cell killing
Procedure: as §1, §2

[1] = target: T1, 42 kDa cellular protein, consistent with RPN13 (Homo sapiens, UniProt Q16186); experiment: Up284B competitive labeling assay in SKOV3 or ES2 cell lysates; type: binding; conditions: pre-cleared SKOV3 or ES2 lysates, 45 min at 4° C., then 5 μM Up284B
T1 construct: endogenous in cells; host or cells: SKOV3 or ES2 cell lysates, pre-cleared with streptavidin-coated beads
T1 sequence (Q16186 whole entry): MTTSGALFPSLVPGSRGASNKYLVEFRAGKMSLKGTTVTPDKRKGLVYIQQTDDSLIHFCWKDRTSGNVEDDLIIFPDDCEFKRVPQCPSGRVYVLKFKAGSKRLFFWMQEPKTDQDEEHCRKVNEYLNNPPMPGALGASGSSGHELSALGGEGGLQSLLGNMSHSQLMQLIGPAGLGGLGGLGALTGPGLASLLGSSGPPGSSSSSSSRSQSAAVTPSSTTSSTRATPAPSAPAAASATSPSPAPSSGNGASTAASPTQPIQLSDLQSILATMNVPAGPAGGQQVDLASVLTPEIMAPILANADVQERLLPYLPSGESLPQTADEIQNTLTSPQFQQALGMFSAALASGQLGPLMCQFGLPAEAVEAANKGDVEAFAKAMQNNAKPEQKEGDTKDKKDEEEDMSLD
Procedure: (§3) Clarified cell lysate (40 ug/sample) in MPER buffer was pretreated with streptavidin-coated magnetic beads for 45 min at 4° C. to deplete non-specific biotinylated proteins in the cell lysate. […] Next, the samples were mixed with Laemmli sample buffer (BioRad) and boiled for 5 min. The proteins were separated using a 4-15% Bio-Rad Mini-PROTEAN SDS-PAGE gel (1 hr at 100 V), and transferred to PVDF membrane overnight at 4° C. (24 V). The membrane was blocked with 5% BSA in PBST for 1 hr at RT and washed for 20 minutes (3× with PBST). Then the membrane was probed with HRP-streptavidin (1:10,000 in PBST) for 1 hr at RT, washed for 30 min (3× with PBST), and developed using HyGLO chemiluminescent detection reagent (Denville) for biotin detection.
Briefly SKOV3 or ES2 cell lysates were first pre-cleared with streptavidin-coated beads to deplete endogenous biotinylated proteins. The pre-cleared lysates were then divided into equal aliquots. […] The lysates were then boiled in gel sample buffer, separated by SDS-PAGE, and transferred to a PVDF membrane.

42 kDa RPN13 = target: T2, 42 kDa RPN13 (Homo sapiens, UniProt Q16186); experiment: RA190B competitive labeling assay in ES2 cell lysate; type: binding; conditions: ES2 cell lysate pre-incubated 45 min at 4° C. (bortezomib or Up compounds 5 μM), then RA190B 20 μM
T2 construct: endogenous in cells; host or cells: ES2 cell lysate (clarified, in MPER buffer)
T2 sequence (Q16186 whole entry): as above
Procedure: as §3
ES2 cell lysates were incubated with 20 μM RA190B for 45 min at 4° C., and then separated by SDS-PAGE, transferred to a PVDF membrane.

| competition with binding of RA190B to the 42 kDa RPN13 (42 kDa RPN13) | SMILES | IC50 (SUM149) [nM] | IC50 (PACS) [nM] | competition with binding of Up284B probe to RPN13 [1] |
| --- | --- | --- | --- | --- |
|  | Cl.Cl.N#Cc1ccc(/C=C2/C(=O)/C(=C/c3ccc(C#N)cc3)C23CCN(C(=N)N)CC3)cc1 [RA475] | 100 | 581 | dose-dependently competed |
| competed | N#Cc1ccc(/C=C2/C(=O)/C(=C/c3ccc(C#N)cc3)C23CCNCC3)cc1 [Up284, reference compound] |  |  |  |

Reference: patent US12410141B2, “Anti-cancer spirocyclic-guanidine compounds and uses thereof” (The Johns Hopkins University, priority 2020, dated 2025)
